Source: US20230346670A1, “Prebiotic Oral Care Compositions and Methods” (Colgate-Palmolive Company, priority 2020, published 2023)

Columns and labels:
Format in all cases: cell-based
A. viscosus = test: Multi-species biofilm composition, absolute abundance (Geq/mL); conditions: repeated rinsing
Procedure: (§1) Biofilms are grown vertically on Calcium Deficient Hydroxyapatite (CAD-HA) disks (Hitemco Medical, Old Bethpage, USA) using the Amsterdam Active Adhesion model. Biofilms are allowed to establish during 24 h (37° C., 170 rpm) under microaerophilic conditions (6% O2, 7% CO2, 7% H2, 80% N2). After this 24 h, disks are rinsed 3 times a day for 3 minutes (RT, 250 rpm), for 3 consecutive days, by transferring the lid containing the disks to a new 24-well plate containing 2 mL/well of the appropriate substrate solution. As a negative control, PBS (pH 5.7) without substrate supplementation is used.
(§2) N-acetyl-D-glucosamine (NADG), α-D-lactose, D-(+)-trehalose and D-(+)-raffinose are selected to determine their effects on multi-species biofilm composition. […] decrease in absolute numbers in at least four of the pathogenic bacterial species tested in the assay, in comparison to the control, the results of which are described in Table 1 below. Note, NADG decreased absolute numbers of S. sobrinus. Absolute abundances of bacterial species are shown as mean ± SD (n = 3) logarithmic values of the genome equivalents per millilitre (log(Geq/mL)).

S. mutans = test: as above; conditions: repeated rinsing
Procedure: as §1, §2

S. salivarius = test: as above; conditions: repeated rinsing
Procedure: as §1, §2

S. sanguinis = test: as above; conditions: repeated rinsing
Procedure: as §1, §2

F. nucleatum = test: as above; conditions: repeated rinsing
Procedure: as §1, §2

V. parvula = test: as above; conditions: repeated rinsing
Procedure: as §1, §2

[1] = tested on: human oral keratinocytes (HOK-18A); test: Inflammatory mediator gene expression in keratinocytes exposed to substrate-treated biofilms (SYBR RT-qPCR); conditions: relative to control, n = 3
Procedure: Cultures of immortalized human oral keratinocytes (HOK-18A) are grown. […] The IL-8 levels in the cellular supernatant are determined as well. RNA is converted to cDNA and relative expression of inflammatory mediator genes is determined as described above with respect to the cellular housekeeping gene β-actin.
In HOKs exposed to substrate-treated (substrate concentrations of […]) multi-species biofilms, there are mostly decreases in inflammatory mediator gene expression as measured via SYBR RT-qPCR, the results of which are detailed in Table 7:
Fold changes in inflammatory mediator gene expression from human oral keratinocytes (HOK-18A) exposed to substrate-treated multi-species biofilms are determined relatively to the control through the 2^^-ΔΔCt method and are shown as the geometric mean (C.I.) (n = 3) of the 2^^-ΔΔCt values. All substrates are dissolved in PBS at a concentration of 1 M (upper part) or 1%(w/v) (lower part). Values between 0 and 1 represent relative downregulation, values >1 represent relative upregulation.

[2] = tested on: P. intermedia virulence genes; test: Virulence gene expression in multi-species biofilm (SYBR RT-qPCR); conditions: for fold change in DnaJ expression, geometric mean (95% C.I.) / fold change in DnaK expression, geometric mean (95% C.I.) / fold change in ECF expression, geometric mean (95% C.I.) / fold change in GroES expression, geometric mean (95% C.I.) / fold change in HtpG expression, geometric mean (95% C.I.) / fold change in KpsD expression, geometric mean (95% C.I.) / fold change in adpc expression, geometric mean (95% C.I.) / fold change in clpB expression, geometric mean (95% C.I.) / fold change in inpA expression, geometric mean (95% C.I.) / fold change in phg expression, geometric mean (95% C.I.): relative to control = 1
Procedure: as §1
The virulence of the substrate-treated multi-species biofilms are evaluated by analyzing the relative expression of 33 genes that are recognized as being related to some form of virulence and from 4 periodontal pathogens.
Expression of bacterial virulence genes is analyzed through SYBR RT-qPCR and normalized for bacterial housekeeping gene expression. […] These effects are illustrated in Tables 6a and 6b:
Note, for Table 6d, fold changes in virulence gene expression are determined relatively to the control condition through the 2^^-ΔΔCt method and are shown as the geometric mean (C.I.) (n = 3) of the 2^^-ΔΔCt values. All substrates are dissolved in PBS at a concentration of 1 M (upper part) or 1%(w/v) (lower part). Values between 0 and 1 represent relative downregulation, values >1 represent relative upregulation. […] NADG: N-acetyl-D-glucosamine; C.I.: 95% confidence interval.

[3] = tested on: multi-species biofilm (beneficial/commensal species, periodontal pathogens, cariogenic pathogens); test: Multi-species biofilm composition, relative proportions and group changes
Procedure: Biofilms are grown vertically on Calcium Deficient Hydroxyapatite (CAD-HA) disks (Hitemco Medical, Old Bethpage, USA) using the Amsterdam Active Adhesion model. […] After this 24 h, disks are rinsed 3 times a day for 3 minutes (RT, 250 rpm), for 3 consecutive days, by transferring the lid containing the disks to a new 24-well plate containing 2 mL/well of the appropriate substrate solution. As a negative control, PBS (pH 5.7) without substrate supplementation is used. N-acetyl-D-glucosamine (NADG), α-D-lactose, D-(+)-trehalose and D-(+)-raffinose are selected to determine their effects on multi-species biofilm composition. Repeated rinsing of the biofilms with the substrates at a concentration of 1 M results in a significant decrease in absolute numbers in at least four of the pathogenic bacterial species tested in the assay, in comparison to the control, the results of which are described in Table 1 below. Note, NADG decreased absolute numbers of S. sobrinus. Absolute abundances of bacterial species are shown as mean ± SD (n = 3) logarithmic values of the genome equivalents per millilitre (log(Geq/mL)).

[4] = HOK-18A exposed to biofilms treated with substrate 1% (w/v)
[5] = HOK-18A exposed to biofilms treated with substrate 1 M
[6] = lower part of Table 6d, head prints 1 M (lower part 1%(w/v))
[7] = upper part of Table 6d, substrate 1 M, n = 3
[8] = Table 1a, substrate 1 M, listed as D-(+)-raffinose
[9] = Table 3, separate experiments, concentration not given

OC[C@H]1O[C@H](OC[C@H]2O[C@H](O[C@]3(CO)O[C@H](CO)[C@@H](O)[C@@H]3O)[C@H](O)[C@@H](O)[C@@H]2O)[C@H](O)[C@@H](O)[C@H]1O [D-raffinose, D-(+)-raffinose]
absolute abundance of A. viscosus (Av), mean ± SD log (Geq/mL) (A. viscosus; substrate 1% (w/v)): 7.77 ± 0.14 log (Geq/mL) | absolute abundance of A. viscosus (Av), mean ± SD log (Geq/mL) (A. viscosus; substrate 1 M in PBS, n = 3): 7.08 ± 0.59 log (Geq/mL) | absolute abundance of S. mutans, mean ± SD log (Geq/mL) (S. mutans; substrate 1% (w/v)): 7.46 ± 0.16 log (Geq/mL) | absolute abundance of S. mutans, mean ± SD log (Geq/mL) (S. mutans; substrate 1 M in PBS, n = 3): 8.24 ± 0.17^∗ log (Geq/mL) | absolute abundance of S. salivarius, mean ± SD log (Geq/mL) (S. salivarius; substrate 1% (w/v)): 2.65 ± 0.00 log (Geq/mL) | absolute abundance of S. salivarius, mean ± SD log (Geq/mL) (S. salivarius; substrate 1 M in PBS, n = 3): 6.29 ± 0.21^∗ log (Geq/mL) | absolute abundance of S. sanguinis, mean ± SD log (Geq/mL) (S. sanguinis; substrate 1% (w/v)): 8.56 ± 0.11 log (Geq/mL) | absolute abundance of S. sanguinis, mean ± SD log (Geq/mL) (S. sanguinis; substrate 1 M in PBS, n = 3): 6.39 ± 0.51 log (Geq/mL) | absolute abundance of F. nucleatum (Fn), mean ± SD log (Geq/mL) (F. nucleatum; substrate 1% (w/v)): 9.40 ± 0.10 log (Geq/mL) | absolute abundance of F. nucleatum (Fn), mean ± SD log (Geq/mL) (F. nucleatum; substrate 1 M in PBS, n = 3): 6.73 ± 0.06^∗ log (Geq/mL) | absolute abundance of V. parvula (VP), mean ± SD log (Geq/mL) (V. parvula; substrate 1% (w/v)): 9.83 ± 0.09 log (Geq/mL) | absolute abundance of V. parvula (VP), mean ± SD log (Geq/mL) (V. parvula; substrate 1 M in PBS, n = 3): 9.88 ± 0.07 log (Geq/mL) | fold change in IL-1β gene expression, geometric mean (C.I.) [1, 4]: 0.93 (0.56-1.55) fold | fold change in IL-6 gene expression, geometric mean (C.I.) [1, 4]: 0.70 (0.44-1.13)^∗ fold | fold change in IL-8 gene expression, geometric mean (C.I.) [1, 4]: 1.08 (0.73-1.59) fold | fold change in MMP-8 gene expression, geometric mean (C.I.) [1, 4]: 0.71 (0.38-1.35) fold | fold change in TNF-α gene expression, geometric mean (C.I.) [1, 4]: 0.77 (0.55-1.08) fold | fold change in IL-1β gene expression, geometric mean (C.I.) [1, 5]: 0.8 (0.44-1.46) fold | fold change in IL-6 gene expression, geometric mean (C.I.) [1, 5]: 0.54 (0.17-1.72) fold | fold change in IL-8 gene expression, geometric mean (C.I.) [1, 5]: 0.10 (0.04-0.29)^∗ fold | fold change in MMP-8 gene expression, geometric mean (C.I.) [1, 5]: 0.85 (0.61-1.19) fold | fold change in TNF-α gene expression, geometric mean (C.I.) [1, 5]: 0.66 (0.56-0.78)^∗ fold | fold change in DnaJ expression, geometric mean (95% C.I.) [2, 6]: 1.56 (0.59-4.12) fold | fold change in DnaK expression, geometric mean (95% C.I.) [2, 6]: 1.76 (0.61-5.06) fold | fold change in ECF expression, geometric mean (95% C.I.) [2, 6]: 0.96 (0.56-1.64) fold | fold change in GroES expression, geometric mean (95% C.I.) [2, 6]: 0.98 (0.24-4.05) fold | fold change in HtpG expression, geometric mean (95% C.I.) [2, 6]: 0.67 (0.43-1.04) fold | fold change in KpsD expression, geometric mean (95% C.I.) [2, 6]: 0.90 (0.58-1.40) fold | fold change in adpc expression, geometric mean (95% C.I.) [2, 6]: 0.85 (0.23-3.13) fold | fold change in clpB expression, geometric mean (95% C.I.) [2, 6]: 1.13 (0.86-1.48) fold | fold change in inpA expression, geometric mean (95% C.I.) [2, 6]: 0.98 (0.64-1.52) fold | fold change in phg expression, geometric mean (95% C.I.) [2, 6]: 0.73 (0.33-1.63) fold | impact on P. intermedia virulence gene expression ([2]; substrate 1% (w/v)): limited impact | downregulation of P. intermedia virulence gene expression ([2]; substrate 1 M): 3 fold | fold change in DnaJ expression, geometric mean (95% C.I.) [2, 7]: 1.76 (0.92-3.37) fold | fold change in DnaK expression, geometric mean (95% C.I.) [2, 7]: 10.07 (6.81-14.89)^∗ fold | fold change in ECF expression, geometric mean (95% C.I.) [2, 7]: 6.74 (1.96-23.20)^∗ fold | fold change in GroES expression, geometric mean (95% C.I.) [2, 7]: 10.59 (4.96-22.60)^∗ fold | fold change in HtpG expression, geometric mean (95% C.I.) [2, 7]: 1.90 (0.99-3.67)^∗ fold | fold change in KpsD expression, geometric mean (95% C.I.) [2, 7]: 1.78 (0.71-4.45) fold | fold change in adpc expression, geometric mean (95% C.I.) [2, 7]: 1.02 (0.40-2.60) fold | fold change in clpB expression, geometric mean (95% C.I.) [2, 7]: 2.21 (1.53-3.21) fold | fold change in inpA expression, geometric mean (95% C.I.) [2, 7]: 1.39 (0.67-2.90) fold | fold change in phg expression, geometric mean (95% C.I.) [2, 7]: 0.33 (0.21-0.50)^∗ fold | relative proportion of beneficial or commensal species in biofilm ([3]; Table 1a, substrate 1 M): 95.86 (+/- 1.63)^∗ % (Geq/mL) | relative proportion of cariogenic pathogens in biofilm ([3]; Table 1a, substrate 1 M): 1.85 (+/- 0.68) % (Geq/mL) | relative proportion of periodontal pathogens in biofilm ([3]; Table 1a, substrate 1 M): 2.29 (+/- 1.40)^∗ % (Geq/mL) | relative proportion of beneficial or commensal species in biofilm [3, 8]: 95.86±1.63 % (Geq/mL) | relative proportion of cariogenic pathogens in biofilm [3, 8]: 1.85±0.68 % (Geq/mL) | relative proportion of periodontal pathogens in biofilm [3, 8]: 2.29±1.40 % (Geq/mL) | relative proportion of beneficials/commensals in biofilm [3, 9]: 64.27 (+/- 1.84) % (Geq/mL) | relative proportion of cariogenic pathogens in biofilm [3, 9]: 0.27 (+/- 0.09) % (Geq/mL) | relative proportion of periodontal pathogens in biofilm [3, 9]: 35.46 (+/- 1.82) % (Geq/mL)
